The text below walks through data of US20070099915A1, “INHIBITORS OF THE HIV INTEGRASE ENZYME” (PFIZER INC., priority 2005, published 2007).

Structures can show the parent of a compound that is named as a salt. Where two headings read alike, the source gives them in different places.

What is called IC50 is the concentration at which inhibition is half-maximal. What is called EC50 is the concentration at which the effect is half-maximal.

In test [1] the target is T1, Full-length wild type HIV-1 integrase (SF1) (Human immunodeficiency virus type 1 group M subtype B, UniProt P04585).
T1 construct: made in house; host or cells: E. coli BL21 (DE3)
Description: Integrase strand-transfer scintillation proximity assay. Format: biochemical. To be noted: strand-transfer SPA, 246 nM integrase, 50 nM host DNA, 37° C., 50 min; read-out: IC50. (In general: In a scintillation proximity assay essentially only radioactivity close to the scintillant gives light.)

Test [2] relates to HIV-1 RF virus in CEM-SS cells. Description: HIV-1 cell protection assay (XTT dye reduction). Format: cell-based. The method, boiled down: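 Infected CEM-SS cultures incubated six days, then XTT with phenazine methosulfate added for 4 h; viability read as formazan absorbance at 450 nm. Formazan expressed as percent of uninfected, compound-free cells; CC50 from uninfected treated cells, therapeutic index as CC50/EC50.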
A general note: Formazan colour is commonly taken as a measure of viable cells.

Setting [3] is: Human immunodeficiency virus 1, 144 h, RF strain of HIV-1, CEM-SS cells, XTT read-out after six days, read-out: EC50.
[4] abbreviates: Human immunodeficiency virus 1, CEM-SS, 144 h.

In the case of `O=C1c2ncc3c(c(CCCOCCN4CCOCC4)cn3Cc3ccc(F)cc3)c2CCN1O` [Example 128, 3-(4-fluorobenzyl)-7-hydroxy-1-[3-(2-morpholin-4-ylethoxy)propyl]-3,7,8,9-tetrahydro-6H-pyrrolo[2,3-c]-1,7-naphthyridin-6-one], the IC50 in test [1] was found to be 0.021 µM. In addition, the concentration for a half-maximal effect (EC50) in test [2] (setting [3]) turned out to be 0.005 µM.
The corresponding values for `CCCCOCc1cn(Cc2ccc(F)cc2)c2cnc3c(c12)CCN(O)C3=O` [Example 60, 1-(butoxymethyl)-3-(4-fluorobenzyl)-7-hydroxy-3,7,8,9-tetrahydro-6H-pyrrolo[2,3-c]-1,7-naphthyridin-6-one] are 0.012 µM and 0.00039 µM.
The corresponding values for `O=C1c2ncc3c(c(CCN4CCOCC4)cn3Cc3ccc(F)cc3)c2CCN1O` [Example 111, 3-(4-fluorobenzyl)-7-hydroxy-1-(2-morpholinoethyl)-8,9-dihydro-3H-pyrrolo[2,3-c][1,7]naphthyridin-6(7H)-one] are 0.012 µM and 0.004 µM.
The corresponding values for `N#Cc1cn(Cc2ccc(F)cc2)c2cnc3c(c12)CCN(O)C3=O` [Example 54, 3-(4-fluorobenzyl)-7-hydroxy-6-oxo-6,7,8,9-tetrahydro-3H-pyrrolo[2,3-c]-1,7-naphthyridine-1-carbonitrile] are 0.02 µM and 0.0066 µM.
`CN1CCN(CCc2cn(Cc3ccc(F)cc3)c3cnc4c(c23)CCN(O)C4=O)CC1=O` [Example 119, 3-(4-fluorobenzyl)-7-hydroxy-1-[2-(4-methyl-3-oxopiperazin-1-yl)ethyl]-3,7,8,9-tetrahydro-6H-pyrrolo[2,3-c]-1,7-naphthyridin-6-one]: the IC50 in test [1] is 0.012 µM. Also, the EC50 in test [2] (setting [3]) came out at 0.07 µM.
In the same order, the values of `CCN(C)Cc1cn(Cc2ccc(F)cc2)c2cnc3c(c12)CCN(O)C3=O` [Example 71, 1-{[ethyl(methyl)amino]methyl}-3-(4-fluorobenzyl)-7-hydroxy-3,7,8,9-tetrahydro-6H-pyrrolo[2,3-c]-1,7-naphthyridin-6-one] are 0.027 µM and 0.008 µM.
In the same order, the values of `CC(C)CN(C)Cc1cn(Cc2ccc(F)cc2)c2cnc3c(c12)CCN(O)C3=O` [Example 123, 3-(4-fluorobenzyl)-7-hydroxy-1-{[isobutyl(methyl)amino]methyl}-3,7,8,9-tetrahydro-6H-pyrrolo[2,3-c]-1,7-naphthyridin-6-one] are 0.044 µM and 0.0016 µM.
In the same order, the values of `O=C1c2ncc3c(ccn3Cc3ccccn3)c2CCN1O` [Example 87, 7-hydroxy-3-(pyridin-2-ylmethyl)-3,7,8,9-tetrahydro-6H-pyrrolo[2,3-c]-1,7-naphthyridin-6-one] are 0.089 µM and 0.035 µM.
Turning to `Cc1cc2c(ncc3c2c(CN2CCN(C)C(=O)C2)cn3Cc2ccc(F)cc2)c(=O)n1O` [Example 96, 3-(4-fluorobenzyl)-7-hydroxy-8-methyl-1-[(4-methyl-3-oxopiperazin-1-yl)methyl]-3,7-dihydro-6H-pyrrolo[2,3-c]-1,7-naphthyridin-6-one], in test [1], the IC50 came out at 0.01 µM. The EC50 in test [2] (setting [3]) was determined as 0.005 µM.
As for `CN(C(=O)c1cn(Cc2ccc(F)cc2)c2cnc3c(c12)CCN(O)C3=O)C1CCOCC1` [Example 20, 3-(4-fluorobenzyl)-7-hydroxy-N-methyl-6-oxo-N-(tetrahydro-2H-pyran-4-yl)-6,7,8,9-tetrahydro-3H-pyrrolo[2,3-c]-1,7-naphthyridine-1-carboxamide], in test [1], the IC50 was determined as 0.019 µM. In test [2] (setting [4]), this compound yielded an EC50 of 0.052 µM.
With `O=C1c2ncc3c(c(CCNC4CCOCC4)cn3Cc3ccc(F)cc3)c2CCN1O` [Example 112, 3-(4-flourobenzyl)-7-hydroxy-1-(2-(tetrahydro-2H-pyran-4-ylamino)ethyl)-8,9-dihydro-3H-pyrrolo[2,3-c][1,7]naphthyridin-6(7H)-one], the IC50 in test [1] came out at 0.028 µM. In addition, the EC50 in test [2] (setting [3]) amounted to 0.063 µM.
The corresponding values for `O=C1c2ncc3c(c(CCO)cn3Cc3ccc(F)cc3)c2CCN1O` [Example 110, 3-(4-fluorobenzyl)-7-hydro-1-(2-hydroxyethyl)-8,9-dihydro-3H-pyrrolo[2,3-c][1,7]naphthyridin-6(7H)-one] are 0.011 µM and 0.005 µM.
In the same order, the values of `O=C1c2ncc3c(c(COCC(O)CO)cn3Cc3ccc(F)cc3)c2CCN1O` (stereo in doubt) [Example 24, 1-({[(2S)-2,3-dihydroxypropyl]oxy}methyl)-3-(4-fluorobenzyl)-7-hydroxy-3,7,8,9-tetrahydro-6H-pyrrolo[2 3-c]-1,7-naphthyridin-6-one] are 0.014 µM and 0.004 µM.
Regarding `O=C1c2ncc3c(c(CNCc4ccc(F)c(F)c4)cn3Cc3ccc(F)cc3)c2CCN1O` [Example 48, 1-{[(3,4-difluorobenzyl)amino]methyl}-3-(4-fluorobenzyl)-7-hydroxy-3,7,8,9-tetrahydro-6H-pyrrolo[2,3-c]-1,7-naphthyridin-6-one], the IC50 in test [1] came to 0.0168 µM. Also, the EC50 in test [2] (setting [3]) amounted to 0.001 µM.
In the case of `Cc1ncccc1COCc1cn(Cc2ccc(F)cc2)c2cnc3c(c12)CCN(O)C3=O` [Example 64, 3-(4-fluorobenzyl)-7-hydroxy-1-{[(2-methylpyridin-3-yl)methoxy]methyl}-3,7,8,9-tetrahydro-6H-pyrrolo[2,3-c]-1,7-naphthyridin-6-one], the IC50 in test [1] came out at 0.009 µM. The EC50 in test [2] (setting [3]) is 0.001 µM.
The corresponding values for `COCCN(Cc1cn(Cc2ccc(F)cc2)c2cnc3c(c12)CCN(O)C3=O)C(C)(C)C` [Example 40, 1-{[tert-butyl(2-methoxyethyl)amino]methyl}-3-(4-fluorobenzyl)-7-hydroxy-3,7,8,9-tetrahydro-6H-pyrrolo[2,3-c]-1,7-naphthyridin-6-one] are 0.0244 µM and 0.0046 µM.
With `CC(C)N(CCOCc1cn(Cc2ccc(F)cc2)c2cnc3c(c12)CCN(O)C3=O)C(C)C` [Example 80, 1-{[2-(diisopropylamino)ethoxy]methyl}-3-(4-fluorobenzyl)-7-hydroxy-3,7,8,9-tetrahydro-6H-pyrrolo[2,3-c]-1,7-naphthyridin-6-one], in test [1], the IC50 was 0.023 µM. For the same compound, the EC50 in test [2] (setting [3]) worked out at 0.012 µM.
The corresponding values for `O=C1c2ncc3c(c(COC4CCOCC4)cn3Cc3ccc(F)cc3)c2CCN1O` [Example 30, 3-(4-fluorobenzyl)-7-hydroxy-1-[(tetrahydro-2H-pyran-4-yloxy)methyl]-3,7,8,9-tetrahydro-6H-pyrrolo[2,3-c]-1,7-naphthyridin-6-one] are 0.042 µM and 0.005 µM.
In the same order, the values of `CCCCOCCOCc1cn(Cc2ccc(F)cc2)c2cnc3c(c12)CCN(O)C3=O` [Example 59] are 0.016 µM and 0.0049 µM.
In the same order, the values of `COCCN1CCN(Cc2cn(Cc3ccc(F)cc3)c3cnc4c(c23)CCN(O)C4=O)CC1` [Example 49, 3-(4-fluorobenzyl)-7-hydroxy-1-{[4-(2-methoxyethyl)piperazin-1-yl]methyl}-3,7,8,9-tetrahydro-6H-pyrrolo[2,3-c]-1,7-naphthyridin-6-one] are 0.0162 µM and 0.0032 µM.
As to `Cc1cc2c(ncc3c2c(CN2CCCC2)cn3Cc2ccc(F)cc2)c(=O)n1O` [Example 46, 3-(4-fluorobenzyl)-7-hydroxy-8-methyl-1-(pyrrolidin-1-ylmethyl)-3,7-dihydro-6H-pyrrolo[2,3-c]-1,7-naphthyridin-6-one], the IC50 in test [1] was found to be 0.00835 µM. Also, in test [2] (setting [3]), the concentration giving a half-maximal response (EC50) was 0.0011 µM.
`CCOCCCOCc1cn(Cc2ccc(F)cc2)c2cnc3c(c12)CCN(O)C3=O` [Example 51, 1-[(3-ethoxypropoxy)methyl]-3-(4-fluorobenzyl)-7-hydroxy-3,7,8,9-tetrahydro-6H-pyrrolo[2,3-c]-1,7-naphthyridin-6-one hydrochloride]: the IC50 in test [1] was 0.017 µM. In test [2] (setting [4]), this compound came in with an EC50 of 0.0004 µM.
For the compound `O=C1c2ncc3c(c(CCNCC(F)(F)F)cn3Cc3ccc(F)cc3)c2CCN1O` [Example 115, 3-(4-fluorobenzyl)-7-hydroxy-1-{2-[(2,2,2-trifluoroethyl)amino]ethyl}-3,7,8,9-tetrahydro-6H-pyrrolo[2,3-c]-1,7-naphthyridin-6-one], the IC50 in test [1] was 0.014 µM. For the same compound, the EC50 in test [2] (setting [3]) turned out to be 0.002 µM.
As to `N#Cc1ccccc1Cn1ccc2c3c(ncc21)C(=O)N(O)CC3` [Example 84, 2-[(7-hydroxy-6-oxo-6,7,8,9-tetrahydro-3H-pyrrolo[2,3-c]-1,7-naphthyridin-3-yl)methyl]benzonitrile], the IC50 in test [1] is 0.125 µM. Also, the EC50 in test [2] (setting [3]) came out at 0.032 µM.
On to “3-(4-fluorobenzyl)-7-hydroxy-1-[(2-propoxyethoxy)methyl]-3,7-dihydro-6H-pyrrolo[23-c]-17-naphthyridin-6-one [Example 89]”, for which the IC50 in test [1] is 0.01 µM. In addition, in test [2] (RF strain of HIV-1, CEM-SS cells, XTT read-out after six days, read-out: EC50), the EC50 turned out to be 0.001 µM.
As for `CN(CCc1cn(Cc2ccc(F)cc2)c2cnc3c(c12)CCN(O)C3=O)CC1CC1` [Example 114], the IC50 in test [1] worked out at 0.019 µM. Also, the EC50 in test [2] (setting [3]) came out at 0.01 µM.
In the same order, the values of `O=C1c2ncc3c(c(COCCOc4ccccc4)cn3Cc3ccc(F)cc3)c2CCN1O` [Example 67, 3-(4-fluorobenzyl)-7-hydroxy-1-[(2-phenoxyethoxy)methyl]-3,7,8,9-tetrahydro-6H-pyrrolo[2,3-c]-1,7-naphthyridin-6-one] are 0.015 µM and 0.001 µM.
The corresponding values for `CN(CCc1cn(Cc2ccc(F)cc2)c2cnc3c(c12)CCN(O)C3=O)CC(F)(F)F` [Example 113, 3-(4-fluorobenzyl)-7-hydroxy-1-{2-[methyl(2,2,2-trifluoroethyl)amino]ethyl}-3,7,8,9-tetrahydro-6H-pyrrolo[2,3-c]-1,7-naphthyridin-6-one] are 0.015 µM and 0.002 µM.
